Source: patent US4088772A, “Methanodibenzocycloheptapyrroles” (E. I. Du Pont de Nemours and Company, priority 1975, dated 1978)
Counter-ions that a name gives are not always drawn. Like-named read-outs stand apart in the source and are kept apart here.

Assays:
female white mice = assay: animal or person; details: Mus musculus, po, oral, mice
in vivo = details: mouse, in vivo, po
[1] = system: phenylquinone-induced writhing; assay: Phenylquinone writhing test (analgesia); assay type: in vivo, mouse (Carworth CF1 S female); details: for ED50: Mus musculus
Source text: This mouse test is predictive of analgesic response in humans. [E. Siegmund, R. Cadmus and G. Lee, Proc. Soc.
ED50 values were obtained graphically from the data.

[2] = read-out: Exploratory Loss Visual ED50, Table 1
[3] = read-out: Reflexes Grip ED50, Table 1
[4] = read-out: Reflexes Lift ED50, Table 1
[5] = read-out: Reflexes Pinna ED50, Table 1
[6] = read-out: Catatonia ED50, Table 1
[7] = read-out: Muscle Tone ED50, Table 1
[8] = read-out: Catatonia ED50, Table III
[9] = read-out: Exploratory Loss Visual ED50, Table III
[10] = read-out: Muscle Tone ED50, Table III
[11] = read-out: Ptosis ED50, Table III
[12] = read-out: Reflexes Grip ED50, Table III
[13] = read-out: Reflexes Lift ED50, Table III
[14] = read-out: Reflexes Pinna ED50, Table III

| SMILES | ED50 (female white mice; [2]) [mg/kg] | ED50 (female white mice; [3]) [mg/kg] | ED50 (female white mice; [4]) [mg/kg] | ED50 (female white mice; [5]) [mg/kg] | ED50 (in vivo) [mg/kg] | LD50 at 24 h (in vivo) [mg/kg] | ED50 ([1]; po, Table 1, mice) [mg/kg] | ED50 (female white mice; [6]) [mg/kg] | ED50 (female white mice; [7]) [mg/kg] | ED50 (female white mice; read-out: Ptosis ED50, Table 1) [mg/kg] | further results |
| --- | --- | --- | --- | --- | --- | --- | --- | --- | --- | --- | --- |
| CCCCCCCCN1CC2c3ccccc3C3CC2(C1)c1ccccc13 (centres unmarked) [Example 16, 2-n-Octyl-2,3,8,12b-tetrahydro-1H-3a,8-methanodibenzo[3,4:6,7]cyclohepta[1,2-c]pyrrole] | 20 | > 324 | 20 | 20 | > 324 | > 324 | 12 | – | – | – | – |
| CCOC(=O)CCCN1CC2c3ccccc3C3CC2(C1)c1ccccc13 (centres unmarked) [Example 11, Ethyl 2,3,8,12b-Tetrahydro-1H-3a,8-methanodibenzo-[3,4:6,7]cyclohepta[1,2-c]pyrrole-2-butyrate] | 100 | > 324 | > 324 | 100 | > 324 | > 324 | 26 | 100 | 200 | 100 | – |
| C=CCC(O)c1ccc2c(c1)[C@]13C[C@H]2c2ccccc2[C@H]1CN(CC1CCCC1)C3 (some centres unmarked) [Example 75, 5-[1-(1-Hydroxy-3-butenyl)]-2-cyclopentylmethyl-2,3,8,12b-tetrahydro-1H-3a,8-methanodibenzo[3,4:6,7]cyclohepta[1,2-c]pyrrole Hydrochloride] | – | – | – | – | – | > 324 | – | – | – | – | ED50 (female white mice; [8]): 36 mg/kg; ED50 (female white mice; [9]): 60 mg/kg; ED50 (female white mice; [10]): 36 mg/kg; ED50 (female white mice; [11]): 12 mg/kg; ED50 (female white mice; [12]): 200 mg/kg; ED50 (female white mice; [13]): 20 mg/kg; ED50 (female white mice; [14]): 7 mg/kg; ED50 ([1]; po, Table III, mice): 11 mg/kg |
| C=C1CC(CN2CC3c4ccccc4C4CC3(C2)c2ccccc24)C1 (centres unmarked) [Example 20, 2-(3-Methylenecyclobutylmethyl)-2,3,8,12b-tetrahydro-1H-3a,8-methanodibenzo[3,4:6,7]cyclohepta[1,2-c]pyrrole] | 21 | 362 | 21 | 24 | > 324 | > 324 | 8.2 | 13 | 15 | 11 | – |
| CNC(=O)ON=Cc1ccc2c(c1)[C@]13C[C@H]2c2ccccc2[C@H]1CN(CC1CCCC1)C3 (relative stereo) [Example 84, 5-Formyl-2-cyclopentylmethyl-2,3,8,12b-tetrahydro-1H-3a,8-methanodibenzo[3,4:6,7]cyclohepta[1,2-c]pyrrole Oxime-O-(N-methylcarbamate) Hydrochloride] | – | – | – | – | – | > 324 | – | – | – | – | ED50 (female white mice; [8]): 100 mg/kg; ED50 (female white mice; [9]): 60 mg/kg; ED50 (female white mice; [10]): 100 mg/kg; ED50 (female white mice; [11]): 36 mg/kg; ED50 (female white mice; [12]): > 324 mg/kg; ED50 (female white mice; [13]): 200 mg/kg; ED50 (female white mice; [14]): 100 mg/kg; ED50 ([1]; Table III, oral, mice): < 130 mg/kg |
| c1ccc2c(c1)C1CC3(CN(CC4CC4)CC23)c2ccccc21 (centres unmarked) [Example 6, 2-Cyclopropylmethyl-2,3,8,12b-tetrahydro-1H-3a,8-methanodibenzo[3,4:6,7]cyclohepta[1,2-c]pyrrole] | 20 | 100 | 20 | 7 | – | 300 | – | 20 | 12 | 20 | ED50 (in vivo; Tremors ED50, Table 1, mice): 100 mg/kg; ED50 ([1]; Table 1, oral, mice): 4.5 mg/kg |
| c1ccc2c(c1)[C@@H]1C[C@@]3(CN(C[C@H]4C[C@H]5CC[C@@H]4C5)C[C@H]23)c2ccccc21 (relative stereo) [Example 36, 2-(2-Endo-bicyclo[2.2.1]heptylmethyl)-2,3,8,12b-tetrahydro-1H-3a,8-methanodibenzo[3,4:6,7]cyclohepta[1,2-c]pyrrole] | 60 | > 324 | 60 | 100 | > 324 | > 324 | 9.8 | 60 | 60 | 20 | – |
| c1ccc(CCN2C[C@@H]3c4ccccc4[C@@H]4C[C@@]3(C2)c2ccccc24)cc1 (relative stereo) [Example 39, 2-(2-Phenylethyl)-2,3,8,12b-tetrahydro-1H-3a,8-methanodibenzo[3,4:6,7]cyclohepta[1,2-c]pyrrole] | 200 | > 324 | 100 | 100 | 300 | > 324 | 22 | 100 | > 324 | 200 | – |
| c1ccc2c(c1)C1CC3(CN(CCCC4CCCCC4)CC23)c2ccccc21 (centres unmarked) [Example 30, 2-(3-Cyclohexylpropyl)-2,3,8,12b-tetrahydro-1H-3a,8-methanodibenzo[3,4:6,7]cyclohepta[1,2-c]pyrrole] | 4 | 200 | 12 | – | > 324 | > 324 | 7 | 12 | – | 4 | – |
| Nc1ccc2c(c1)[C@H]1CN(CC3CCCC3)C[C@@]13C[C@@H]2c1ccc(N)cc13 (relative stereo) [Example 72, 5,11-Diamino-2-cyclopentylmethyl-2,3,8,12b-tetrahydro-1H-3a,8-methanodibenzo[3,4:6,7]cyclohepta[1,2-c]pyrrole] | – | – | – | – | – | > 324 | – | – | – | – | ED50 (female white mice; [8]): 20 mg/kg; ED50 (female white mice; [9]): 60 mg/kg; ED50 (female white mice; [10]): 36 mg/kg; ED50 (female white mice; [12]): 200 mg/kg; ED50 (female white mice; [13]): 60 mg/kg; ED50 (female white mice; [14]): 20 mg/kg; ED50 ([1]; po, Table III, mice): 7 mg/kg |
| c1ccc(CCCCN2C[C@@H]3c4ccccc4[C@@H]4C[C@@]3(C2)c2ccccc24)cc1 (relative stereo) [Example 61, 2-(4-Phenylbutyl)-2,3,8,12b-tetrahydro-1H-3a,8-methanodibenzo[3,4:6,7]cyclohepta[1,2-c]pyrrole] | 20 | > 324 | 60 | 36 | – | > 324 | 5.6 | 20 | 20 | 36 | – |
| Clc1ccc2c(c1)[C@H]1CN(CC3CCCC3)C[C@@]13C[C@@H]2c1ccc(Cl)cc13 (relative stereo) [Example 79, 5,11-Dichloro-2-cyclopentylmethyl-2,3,8,12b-tetrahydro1H-3a,8-methanodibenzo[3,4:6,7]cyclohepta[1,2-c]pyrrole Hydrochloride] | – | – | – | – | – | > 324 | – | – | – | – | ED50 (female white mice; [8]): 20 mg/kg; ED50 (female white mice; [9]): 7 mg/kg; ED50 (female white mice; [10]): 36 mg/kg; ED50 (female white mice; [11]): 7 mg/kg; ED50 (female white mice; [12]): > 324 mg/kg; ED50 (female white mice; [13]): 36 mg/kg; ED50 (female white mice; [14]): 7 mg/kg; Phenylquinone Analgesia ED50 ([1]; Table III, oral, mice): active |
| CCC(CC)CN1CC2c3ccccc3C3CC2(C1)c1ccccc13 (centres unmarked) [Example 17, 2-(2-Ethylbutyl)-2,3,8,12b-tetrahydro-1H-3a,8-methanodibenzo[3,4:6,7]cyclohepta[1,2-c]pyrrole] | 200 | > 324 | 200 | 200 | > 324 | > 324 | 48 | 36 | 100 | 100 | – |
| C1=C[C@@H]2C[C@H]1C[C@H]2CN1C[C@@H]2c3ccccc3[C@@H]3C[C@@]2(C1)c1ccccc13 (relative stereo) [Example 37, 2-(2-Exo-bicyclo[2.2.1]hept-5-enylmethyl)-2,3,8,12b-tetrahydro-1H-3a,8-methanodibenzo[3,4:6,7]cyclohepta[1,2-c]pyrrole] | 7 | 200 | 12 | 20 | > 324 | 300 | 2.4 | 7 | 4 | ≤ 4 | – |
| [O-][N+]1(CC2CCCC2)CC2c3ccccc3C3CC2(C1)c1ccccc13 (centres unmarked) [Cyclopentylmethyl-N-oxide, N-Oxide of 2-cyclopentylmethyl-2,3,8,12b-tetrahydro-1H-3a,8-methanodibenzo[3,4:6,7]cyclohepta[1,2-c]-pyrrole] | 12 | > 324 | 20 | 7 | > 324 | > 324 | 24 | 36 | 12 | ≤ 4 | – |
| FCc1ccc2c(c1)[C@]13C[C@H]2c2ccccc2[C@H]1CN(CC1CCCC1)C3 (relative stereo) [Example 87, 5-Fluoromethyl-2-cyclopentylmethyl-2,3,8,12b-tetrahydro-1H-3a,8-methanodibenzo[3,4:6,7]cyclohepta[1,2-c]-pyrrole Hydrochloride] | – | – | – | – | – | > 324 | – | – | – | – | ED50 (female white mice; [8]): 36 mg/kg; ED50 (female white mice; [9]): 12 mg/kg; ED50 (female white mice; [10]): 36 mg/kg; ED50 (female white mice; [11]): 7 mg/kg; ED50 (female white mice; [12]): 300 mg/kg; ED50 (female white mice; [13]): 36 mg/kg; ED50 (female white mice; [14]): 36 mg/kg; ED50 ([1]; po, Table III, mice): 78 mg/kg |
| CC(C1CCCC1)N1C[C@@H]2c3ccccc3[C@@H]3C[C@@]2(C1)c1ccccc13 (some centres unmarked) [Example 50, 2-(1-Cyclopentylethyl)-2,3,8,12b-tetrahydro-1H-3a,8-methanodibenzo[3,4:6,7]cyclohepta[1,2-c]pyrrole] | 20 | 300 | 60 | 36 | > 324 | > 324 | 23 | 20 | 36 | 60 | – |
